Experimental data reported in patent publication US20230158084A1, “PROBIOTICS, METABOLITES, AND USES THEREOF” (California Institute of Technology, priority 2018, published 2023).

What was measured:
Type in all cases: in vivo, mouse
[1] = tested on: lncRNAs and ASD-relevant isoforms in the STR and PFC of BTBR mice; assay: qPCR of BTBR brains after 5AV and taurine administration; conditions: adult metabolite-treated BTBR mice
Source text: (§1) FIGS. 5A-D are a series of drawings illustrating that differential metabolites impact ASD-relevant behaviors in SPF mice in accordance with some embodiments herein. FIG. 5A: The abundance of select metabolites in the offspring microbiome is correlated with behavior of male offspring. Spearman correlation between the microbiome and mouse behavior, by donor (See FIGS. 1A-0). Benjamini-Hochberg adjusted p-values (α≤0.05) for significant correlations are noted. Color scale denotes Spearman ρ. […] Groups of mice were orally administered 10 mM Taurine or 5AV in drinking water before mating, and throughout their lifetime. Offspring were tested by marble burying, direct social interaction, and open field tests, and compared to untreated vehicle controls. Results are aggregated from 2 independent experiments. NControl=42, N5AV=52, NTaurine=36. Bar plots denote mean and S.E.M. Hypothesis on differences in means were tested by ANOVA on trimmed means (10%) and subsequent posthoc tests. FIGS. 5E-L: qPCR of BTBR brains after 5AV and taurine administration. Results are aggregated from 2 independent experiments. Hypothesis on differences in means were tested by ANOVA on trimmed means (10%) and subsequent posthoc tests. FIGS. 5M-V: series of graphs illustrating E18 B6 feeding 5AV and Taurine targeted metabolomics.
In view of the results described herein, it was further hypothesized that 5AV and taurine exert their effects on behavioral outcomes by altering expression patterns in the brain. To address this hypothesis, brains were collected from adult metabolite-treated BTBR mice and relative expression was quantified for select genes and isoforms that are differentially expressed between TD- and ASD-colonized offspring (FIGS. 3A-J). […] To test whether the expression of splice variants containing exons highlighted by rMATs analysis (see FIG. 3B, Tables 2.1-2.3), isoforms of interest were identified, which contain or exclude exons implicated by the analysis. […] Therefore, treatment with 5AV and taurine according to some embodiments affects the expression of lncRNAs and of specific ASD-relevant isoforms in the brains of BTBR mice treated throughout their lives.

[2] = tested on: BTBR mice; assay: Marble burying (MB), BTBR mice given metabolites; conditions: BTBR offspring; 10 mM in drinking water before mating and throughout lifetime (prenatal administration); vs untreated vehicle controls
Description: as §1, with “Benjamini-Hochberg adjusted p-values (α≤0.05) for significant correlations are noted.” left out, “[…]=52,” for “N5AV=52,”, “[…] The number” for “FIGS. 5M-V: series”, “buried marbles (50% or more covered) was then recorded” for “graphs illustrating E18 B6 feeding 5AV”, “photographed for reference. […] As such, it will be appreciated that at a given stage of development, some molecules may readily pass through the blood brain barrier, while others may not.” for “Taurine targeted metabolomics.”

[3] = tested on: pyramidal neurons in the L5 of the mPFC; assay: Electrophysiology in acute slices from treated BTBR mice (mEPSC, mIPSC, excitability); conditions: BTBR mice given 10 mM in drinking water starting 3-4 weeks of age
Description: FIGS. 8A-E are a series of graphs illustrating effects of microbial metabolites on brain activity of mice in accordance with some embodiments herein. Mice were orally administered 10 mM Taurine or 5AV in drinking water starting 3-4 weeks of age mating, and throughout their lifetime. FIG. 8A illustrates effects on amplitude and frequency of mEPSCs in pyramidal neurons in the L5 of the mPFC in acute slices from BTBR mice treated with 5AV, Taurine, or control. FIG. 8B illustrates effects on amplitude and frequency of mIPSCs in pyramidal neurons in the L5 of the mPFC in acute slices from BTBR mice treated with 5AV, Taurine, or control. Hypotheses for FIGS. 8A-B were tested by ANOVA on trimmed means (10%) and subsequent post-hoc tests. FIG. 8C illustrates effects on excitability of pyramidal neurons in the L5 of the mPFC in acute slices from BTBR mice treated with 5AV, Taurine, or control in response to step-wise injection current, as measured by the number of action potential spikes. 2-way ANOVA. BTBR mice were orally administered 10 mM Taurine or 5AV in drinking water starting 3-4 weeks of age mating, and throughout their lifetime, and effects on the brain were observed. FIG. 8A illustrates effects on amplitude and frequency of mEPSCs in pyramidal neurons in the L5 of the mPFC in acute slices from BTBR mice treated with 5AV, Taurine, or control. FIG. 8B illustrates effects on amplitude and frequency of mIPSCs in pyramidal neurons in the L5 of the mPFC in acute slices from BTBR mice treated with 5AV, Taurine, or control. Hypotheses for FIGS. 8A-B were tested by ANOVA on trimmed means (10%) and subsequent post-hoc tests. FIG. 8C illustrates effects on excitability of pyramidal neurons in the L5 of the mPFC in acute slices from BTBR mice treated with 5AV, Taurine, or control in response to step-wise injection current, as measured by the number of action potential spikes. 2-way ANOVA.

| Structure (SMILES) | expression of isoforms of Tip12 and Pogz [1] | expression of the lncRNAs Gm17259 and Gm13016 in the STR ([1]; striatum) | expression of transcripts of Neurexin 1 in the STR ([1]; striatum) | repetitive behavior, as measured by marble burying [2] | mEPSC amplitude [3] | other effects on neuron activity (mIPSCs, excitability; FIGS. 8B-E) [3] | expression of isoforms containing a A3SS event in Gigyf2 [1] |
| --- | --- | --- | --- | --- | --- | --- | --- |
| NCCCCC(=O)O [5AV, 5-Aminovaleric acid] | marginal effects | increased | increased in expression | reduced repetitive behavior | induced a decrease in mEPSC amplitude, it was not statistically significant | not otherwise observed | – |
| NCCS(=O)(=O)O [taurine] | – | increased | – | significantly reduces repetitive behavior in male mice | – | not otherwise observed | increases the expression |
